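The compound was tested at five concentrations on cells cultured in 96-well plates, with a 48-hour exposure period. GI50: concentration for 50% inhibition of growth. The concentration for full growth arrest is given as TGI.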
What was measured:
Experiment in all cases: growth of human tumour cells (NCI), 48 h
T-47D breast = system: T-47D breast
RPMI-8226 leukemia = system: RPMI-8226 leukemia
SK-MEL-5 melanoma = system: SK-MEL-5 melanoma
LOX IMVI melanoma = system: LOX IMVI melanoma
TK-10 renal = system: TK-10 renal
COLO 205 colon = system: COLO 205 colon
MDA-MB-435 = system: MDA-MB-435
NCI-H226 lung = system: NCI-H226 lung
MCF7 breast = system: MCF7 breast
U251 CNS = system: U251 CNS
RXF 393 renal = system: RXF 393 renal
SF-539 CNS = system: SF-539 CNS
A549 NSCLC = system: A549 NSCLC
EKVX NSCLC = system: EKVX NSCLC
SNB-75 CNS = system: SNB-75 CNS
SF-295 CNS = system: SF-295 CNS
SK-MEL-2 melanoma = system: SK-MEL-2 melanoma
HCT-116 colon = system: HCT-116 colon
CAKI-1 renal = system: CAKI-1 renal
HOP-62 NSCLC = system: HOP-62 NSCLC
DU-145 prostate = system: DU-145 prostate
HCT-15 colon = system: HCT-15 colon
OVCAR-3 ovarian = system: OVCAR-3 ovarian
BT-549 breast = system: BT-549 breast
HT29 colon = system: HT29 colon
NCI-H522 lung = system: NCI-H522 lung
MOLT-4 leukemia = system: MOLT-4 leukemia
MDA-MB-231 breast = system: MDA-MB-231 breast
SK-OV-3 ovarian = system: SK-OV-3 ovarian
HOP-92 NSCLC = system: HOP-92 NSCLC
UACC-62 melanoma = system: UACC-62 melanoma
HCC-2998 colon = system: HCC-2998 colon
OVCAR-4 ovarian = system: OVCAR-4 ovarian
CCRF-CEM leukemia = system: CCRF-CEM leukemia
HL-60(TB) leukemia = system: HL-60(TB) leukemia
SR leukemia = system: SR leukemia
UO-31 renal = system: UO-31 renal
SN12C renal = system: SN12C renal
786-0 renal = system: 786-0 renal
ACHN renal = system: ACHN renal
KM12 colon = system: KM12 colon
SF-268 CNS = system: SF-268 CNS
OVCAR-5 ovarian = system: OVCAR-5 ovarian
M14 melanoma = system: M14 melanoma
K-562 leukemia = system: K-562 leukemia
A498 renal = system: A498 renal
IGROV1 ovarian = system: IGROV1 ovarian
NCI-H460 lung = system: NCI-H460 lung
NCI-H23 lung = system: NCI-H23 lung
SNB-19 CNS = system: SNB-19 CNS
PC-3 prostate = system: PC-3 prostate
MALME-3M melanoma = system: MALME-3M melanoma
OVCAR-8 ovarian = system: OVCAR-8 ovarian
NCI/ADR-RES ovarian = system: NCI/ADR-RES ovarian
UACC-257 melanoma = system: UACC-257 melanoma

## O=C1C=Cc2ccccc2/C1=C/c1[nH]c(=O)[nH]c1O
T-47D breast
  GI50: 2.5 µM
  TGI: 25.6 µM
RPMI-8226 leukemia
  GI50: 45.2 µM
  TGI: > 100 µM
SK-MEL-5 melanoma
  GI50: 2.84 µM
  TGI: 13 µM
LOX IMVI melanoma
  GI50: 7 µM
  TGI: > 100 µM
TK-10 renal
  GI50: 10.5 µM
  TGI: 85.4 µM
COLO 205 colon
  GI50: 3.59 µM
  TGI: 31.9 µM
MDA-MB-435
  GI50: 1.76 µM
  TGI: 4.64 µM
NCI-H226 lung
  GI50: 9.59 µM
  TGI: > 100 µM
MCF7 breast
  GI50: 2.4 µM
  TGI: 15.2 µM
U251 CNS
  GI50: 5.39 µM
  TGI: 35 µM
RXF 393 renal
  GI50: 2.78 µM
  TGI: 10.2 µM
SF-539 CNS
  GI50: 3.38 µM
  TGI: 16.8 µM
A549 NSCLC
  GI50: 19.8 µM
  TGI: 61.6 µM
EKVX NSCLC
  GI50: 2.46 µM
  TGI: 25.4 µM
SNB-75 CNS
  GI50: 2.14 µM
  TGI: 7.44 µM
SF-295 CNS
  GI50: 3.1 µM
  TGI: 8.3 µM
SK-MEL-2 melanoma
  GI50: 2.97 µM
  TGI: 8.71 µM
HCT-116 colon
  GI50: 4.12 µM
  TGI: 18.3 µM
CAKI-1 renal
  GI50: 5.7 µM
  TGI: 42.7 µM
HOP-62 NSCLC
  GI50: 7.5 µM
  TGI: 35 µM
DU-145 prostate
  GI50: 5.8 µM
  TGI: 76.8 µM
HCT-15 colon
  GI50: 7.44 µM
  TGI: > 100 µM
OVCAR-3 ovarian
  GI50: 2.51 µM
  TGI: 7.73 µM
BT-549 breast
  GI50: 6.75 µM
  TGI: 96.3 µM
HT29 colon
  GI50: 4.35 µM
  TGI: 17.1 µM
NCI-H522 lung
  GI50: 1.3 µM
  TGI: 3.89 µM
MOLT-4 leukemia
  GI50: 4.19 µM
  TGI: > 100 µM
MDA-MB-231 breast
  GI50: 13.2 µM
  TGI: 84.3 µM
SK-OV-3 ovarian
  GI50: 3.66 µM
  TGI: 23.2 µM
HOP-92 NSCLC
  GI50: 5.75 µM
  TGI: 47.8 µM
UACC-62 melanoma
  GI50: 3.45 µM
  TGI: > 100 µM
HCC-2998 colon
  GI50: 7.43 µM
  TGI: > 100 µM
OVCAR-4 ovarian
  GI50: 4.22 µM
  TGI: 23.4 µM
CCRF-CEM leukemia
  GI50: 4.01 µM
  TGI: > 100 µM
HL-60(TB) leukemia
  GI50: 3.44 µM
  TGI: > 100 µM
SR leukemia
  GI50: 1.67 µM
  TGI: 7.83 µM
UO-31 renal
  GI50: 1.78 µM
  TGI: 28.5 µM
SN12C renal
  GI50: 10.1 µM
  TGI: > 100 µM
786-0 renal
  GI50: 5.41 µM
  TGI: 29.5 µM
ACHN renal
  GI50: 9.97 µM
  TGI: > 100 µM
KM12 colon
  GI50: 2.99 µM
  TGI: 9.34 µM
SF-268 CNS
  GI50: 7.27 µM
  TGI: > 100 µM
OVCAR-5 ovarian
  GI50: 42.8 µM
  TGI: > 100 µM
M14 melanoma
  GI50: 4.42 µM
  TGI: > 100 µM
K-562 leukemia
  GI50: 2.85 µM
  TGI: 34 µM
A498 renal
  GI50: 2.87 µM
  TGI: 10.6 µM
IGROV1 ovarian
  GI50: 1.39 µM
  TGI: 26.6 µM
NCI-H460 lung
  GI50: 9.71 µM
  TGI: 30.9 µM
NCI-H23 lung
  GI50: 8.19 µM
  TGI: > 100 µM
SNB-19 CNS
  GI50: 3.49 µM
  TGI: 16.6 µM
PC-3 prostate
  GI50: 3.61 µM
  TGI: > 100 µM
MALME-3M melanoma
  GI50: 4.19 µM
  TGI: 88.2 µM
OVCAR-8 ovarian
  GI50: 9.6 µM
  TGI: 62.5 µM
NCI/ADR-RES ovarian
  GI50: 20.3 µM
  TGI: > 100 µM
UACC-257 melanoma
  GI50: 2.93 µM
  TGI: > 100 µM
